Data reported in patent publication US9340504B2, “Pyridine and piperidine derivatives as novel sodium channel blockers” (priority 2013, dated 2016).
Where two headings read alike, the source gives them in different places.

Target: human Nav1.7 (Homo sapiens (Human), UniProt Q15858)
Assay: FLIPR or FLIPR TETRA sodium dye assay with KCl and test article pre-incubation
Type: cell-based
Details: read-out: Nav1.7 Activity (μM) FLIPR assay IC50 (μM) ± SEM
[1] = recombinant HEK293 cells expressing human Nav1.7 alpha subunit, CoroNa Green sodium dye, veratridine and scorpion venom as agonists

human Nav1.7, sequence (Q15858 with tags, fused parts or gaps limits assumed): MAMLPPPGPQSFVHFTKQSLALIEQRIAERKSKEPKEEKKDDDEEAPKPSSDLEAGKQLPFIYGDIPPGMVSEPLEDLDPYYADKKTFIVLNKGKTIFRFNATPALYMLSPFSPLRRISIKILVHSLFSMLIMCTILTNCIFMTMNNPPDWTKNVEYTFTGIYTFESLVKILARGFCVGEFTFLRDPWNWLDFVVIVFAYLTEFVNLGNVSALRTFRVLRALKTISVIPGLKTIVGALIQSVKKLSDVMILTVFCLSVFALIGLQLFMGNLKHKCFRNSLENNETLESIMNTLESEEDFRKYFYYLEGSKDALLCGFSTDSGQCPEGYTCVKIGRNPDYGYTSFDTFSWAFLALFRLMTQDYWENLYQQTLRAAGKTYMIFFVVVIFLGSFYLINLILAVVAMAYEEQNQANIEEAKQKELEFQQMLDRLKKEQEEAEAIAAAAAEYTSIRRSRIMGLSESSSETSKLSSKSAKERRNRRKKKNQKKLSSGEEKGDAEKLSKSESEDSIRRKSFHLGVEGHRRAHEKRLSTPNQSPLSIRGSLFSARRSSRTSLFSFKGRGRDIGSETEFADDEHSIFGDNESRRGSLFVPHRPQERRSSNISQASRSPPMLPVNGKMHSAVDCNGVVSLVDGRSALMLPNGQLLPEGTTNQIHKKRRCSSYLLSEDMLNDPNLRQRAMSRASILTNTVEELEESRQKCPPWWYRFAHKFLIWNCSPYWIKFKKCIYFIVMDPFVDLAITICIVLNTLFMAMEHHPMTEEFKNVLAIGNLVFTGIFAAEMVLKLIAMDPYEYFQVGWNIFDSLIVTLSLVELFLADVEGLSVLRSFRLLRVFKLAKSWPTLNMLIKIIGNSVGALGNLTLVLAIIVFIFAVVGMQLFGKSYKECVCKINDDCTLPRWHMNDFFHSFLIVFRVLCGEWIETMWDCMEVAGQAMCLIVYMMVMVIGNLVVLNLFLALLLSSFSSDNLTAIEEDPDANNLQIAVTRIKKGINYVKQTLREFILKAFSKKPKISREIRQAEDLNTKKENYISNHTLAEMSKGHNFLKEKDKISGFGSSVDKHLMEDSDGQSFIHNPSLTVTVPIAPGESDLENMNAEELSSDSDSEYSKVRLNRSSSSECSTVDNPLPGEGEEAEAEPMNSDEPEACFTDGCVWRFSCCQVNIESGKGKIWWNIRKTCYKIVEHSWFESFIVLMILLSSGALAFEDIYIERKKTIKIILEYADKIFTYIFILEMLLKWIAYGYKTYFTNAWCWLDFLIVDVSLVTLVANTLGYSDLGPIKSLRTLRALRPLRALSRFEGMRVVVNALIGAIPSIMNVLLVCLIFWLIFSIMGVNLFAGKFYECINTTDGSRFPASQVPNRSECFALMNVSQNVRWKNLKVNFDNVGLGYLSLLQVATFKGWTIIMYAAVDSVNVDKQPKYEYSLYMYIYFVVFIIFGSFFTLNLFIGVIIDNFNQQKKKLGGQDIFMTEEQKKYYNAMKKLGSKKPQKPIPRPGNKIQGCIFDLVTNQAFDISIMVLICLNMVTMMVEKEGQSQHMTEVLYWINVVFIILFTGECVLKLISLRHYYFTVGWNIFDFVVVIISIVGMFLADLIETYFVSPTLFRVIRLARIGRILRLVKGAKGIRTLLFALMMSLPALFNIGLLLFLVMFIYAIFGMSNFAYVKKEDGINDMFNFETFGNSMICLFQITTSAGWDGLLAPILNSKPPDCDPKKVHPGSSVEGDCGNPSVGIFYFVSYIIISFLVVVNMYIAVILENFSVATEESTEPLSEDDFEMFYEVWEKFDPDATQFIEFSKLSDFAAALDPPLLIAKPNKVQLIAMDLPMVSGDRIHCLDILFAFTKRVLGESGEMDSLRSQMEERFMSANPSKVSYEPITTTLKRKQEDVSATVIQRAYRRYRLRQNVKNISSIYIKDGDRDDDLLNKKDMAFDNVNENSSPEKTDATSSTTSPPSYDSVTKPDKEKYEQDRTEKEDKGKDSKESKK

Row | SMILES | IC50 [1] [µM] | IC50 [µM]
1 | COc1ncccc1-c1ccccc1Cc1cccc(-c2ccc(OCC(F)(F)F)nc2)n1 [Compound 11, 6-(2-(2-methoxypyridin-3-yl)benzyl)-6′-(2,2,2-trifluoroethoxy)-2,3′-bipyridine] | > 20 | 
2 | COc1ncc(-c2ccccc2Cc2cccc(-c3ccc(OCC(F)(F)F)nc3)n2)cn1 [Compound 13, 6-(2-(2-methoxypyrimidin-5-yl)benzyl)-6′-(2,2,2-trifluoroethoxy)-2,3′-bipyridine] |  | 0.849 ± 0.069
3 | Fc1ccc(-c2ccccc2Cc2cccc(-c3ccc(OCC(F)(F)F)nc3)n2)cn1 [Compound 12, 6-(2-(6-fluoropyridin-3-yl)benzyl)-6′-(2,2,2-trifluoroethoxy)-2,3′-bipyridine] | > 20 | 
4 | CN(C)c1ncc(-c2ccccc2Cc2cccc(-c3ccc(OCC(F)(F)F)nc3)n2)cn1 [Compound 15, N,N-dimethyl-5-(2-((6′-(2,2,2-trifluoroethoxy)-[2,3′-bipyridin]-6-yl)methyl)phenyl)pyrimidin-2-amine] | 0.34 ± 0.012 | 
5 | Oc1ccccc1Cc1cccc(-c2ccc(OCC(F)(F)F)nc2)n1 [Compound 8, 2-((6′-(2,2,2-trifluoroethoxy)-[2,3′-bipyridin]-6-yl)methyl)phenol] | > 20 | 
6 | CSc1ncc(-c2ccccc2Cc2cccc(-c3ccc(OCC(F)(F)F)nc3)n2)cn1 [Compound 14, 6-(2-(2-(methylthio)pyrimidin-5-yl)benzyl)-6′-(2,2,2-trifluoroethoxy)-2,3′-bipyridine] | 0.947 ± 0.06 | 
